According to patent US6794415B2, “Biphenyl compounds and their use as oestrogenic agents” (Aventis Pharma S.A., priority 1996, dated 2004):

Assays:
[1] = target: T1, recombinant human oestrogen receptor (HOR) (Homo sapiens, UniProt P03372); assay: Human oestrogen receptor (HOR): displacement of tritiated oestradiol, relative bond affinity; type: binding; details: oestradiol = 100, RBA=100(CH)/(CX); for HOR long t relative bond affinity (RBA): incubation 0° C. for 24 hours (long t); for HOR short t relative bond affinity (RBA): incubation 0° C. for 3 hours (short t)
T1 construct: made in house; host or cells: SF9 insect cells (ATCC CRL1711), baculovirus
T1 sequence (P03372 1-595): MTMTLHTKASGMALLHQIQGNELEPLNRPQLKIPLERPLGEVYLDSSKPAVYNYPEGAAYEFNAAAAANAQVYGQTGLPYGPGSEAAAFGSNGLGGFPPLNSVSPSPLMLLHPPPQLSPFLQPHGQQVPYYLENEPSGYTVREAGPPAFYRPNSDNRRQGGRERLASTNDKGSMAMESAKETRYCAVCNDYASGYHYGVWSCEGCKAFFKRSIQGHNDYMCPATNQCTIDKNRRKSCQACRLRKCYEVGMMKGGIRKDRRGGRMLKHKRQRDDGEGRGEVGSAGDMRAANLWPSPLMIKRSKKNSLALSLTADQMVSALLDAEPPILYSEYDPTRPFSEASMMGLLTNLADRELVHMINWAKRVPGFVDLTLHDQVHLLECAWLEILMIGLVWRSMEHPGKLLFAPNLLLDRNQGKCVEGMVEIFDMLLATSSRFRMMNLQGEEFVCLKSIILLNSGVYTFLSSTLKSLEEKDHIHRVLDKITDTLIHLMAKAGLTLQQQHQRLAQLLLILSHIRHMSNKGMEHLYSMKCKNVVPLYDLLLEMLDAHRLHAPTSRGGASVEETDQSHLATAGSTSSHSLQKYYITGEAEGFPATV
Description: Human Oestrogen Receptor (HOR)
A cytosolic extract of SF9 cells containing the recombinant human oestrogen receptor is obtained by overexpression in an insect-Baculovirus cell system, according to the general methodology described by N. R. WEBB et al. (Journal of Methods in Cell and Molecular Biology, (1990) Vol.2 No. 4, 173-188) and the application of which is described for the expression of human hormonal receptors, for example the human glucocorticoid receptor (G. SRINIVASAN et al. Molecular Endocrinology (1990) vol 4 No. 2 209-216).
The BaculoGold Transfection Kit (PharMingen, reference 21000K) is used to generate the recombinant baculovirus containing the cDNA fragment described in the expression vector HEGO by L. TORA et al. (The EMBO Journal (1989) vol. 8 No. 7 1981-1986), containing the coding region for the wild-type human oestrogen receptor with a glycine in position 400.
The recombinant virus thus obtained is used to express the oestrogen receptor in the SF9 insect cells (ATCC CRL1711), according to the known methodology mentioned previously.
2*10^7 SF9 cells are cultured in a 175 cm^2 “Falcon” flask in the TNM-FH “SIGMA” medium supplemented by 10% of foetal calf serum (FCS) and by 50 microgram/ml of gentamycin. After infection then incubation at 27° C. for 40 to 42 hours, the cells are lysed in 1 ml of lysis buffer (Tris 20 mM-HCl pH8, EDTA 0.5 mM, DTT 2 mM, Glycerol 20%, KCl 400 mM) with a freezing-thawing cycle which is repeated another two times. The supernatant, containing the recombinant human oestrogen receptor is kept in liquid nitrogen by 0.5 ml doses.
The supernatant is incubated at 0° C. for 24 hours (long t) or 3 hours (short t) with a constant concentration (T) of tritiated oestradiol in the presence of increasing concentrations of either unlabelled oestradiol (0-1000×10^−9M), or of unlabelled product to be tested (0-25000×10^−9M). The concentration of bound tritiated oestradiol (B) is then measured in each incubate by the technique of adsorption with carbon dextran.
(§1) Calculation of the Relative Bond Affinity (RBA):
(§2) The following two curves are drawn: the percentage of bound tritiated hormone 100×B/B0 as a function of the logarithm of the concentration of unlabelled reference hormone or as a function of the concentration of unlabelled test product.
(§3) The straight line of the equation
(§4) B0=concentration of bound tritiated hormone in the absence of any unlabelled product.
(§5) B=concentration of bound tritiated hormone in the presence of a concentration X of unlabelled product.
(§6) B min=concentration of bound tritiated hormone for an incubation of this tritiated hormone at a concentration (T) in the presence of a large excess of unlabelled reference hormone (1000×10^−9M) for the human receptor.
(§7) The intersections of the straight line I50 and the curves allow the evaluation of the concentrations of unlabelled reference hormone (CH) and of the unlabelled test product (CX) which inhibit by 50% the binding of the tritiated hormone on the receptor.
(§8) The relative bond affinity (RBA) of the test product is calculated by the equation: RBA=100(CH)/(CX).

[2] = target: T2, Oestrogen Receptor of a Rat's Uterus (ROR) (Rattus norvegicus, UniProt P06211); assay: Oestrogen receptor of a rat's uterus (ROR): displacement of tritiated oestradiol, relative bond affinity; type: binding; details: oestradiol = 100; RBA=100(CH)/(CX); rat uterus cytosol, incubation 0° C. for 24 hours
T2 construct: the uteri are removed, then homogenized at 0° C; from tissue; host or cells: rat uterus cytosol (ultracentrifugation supernatant of homogenate)
T2 sequence (P06211 1-600): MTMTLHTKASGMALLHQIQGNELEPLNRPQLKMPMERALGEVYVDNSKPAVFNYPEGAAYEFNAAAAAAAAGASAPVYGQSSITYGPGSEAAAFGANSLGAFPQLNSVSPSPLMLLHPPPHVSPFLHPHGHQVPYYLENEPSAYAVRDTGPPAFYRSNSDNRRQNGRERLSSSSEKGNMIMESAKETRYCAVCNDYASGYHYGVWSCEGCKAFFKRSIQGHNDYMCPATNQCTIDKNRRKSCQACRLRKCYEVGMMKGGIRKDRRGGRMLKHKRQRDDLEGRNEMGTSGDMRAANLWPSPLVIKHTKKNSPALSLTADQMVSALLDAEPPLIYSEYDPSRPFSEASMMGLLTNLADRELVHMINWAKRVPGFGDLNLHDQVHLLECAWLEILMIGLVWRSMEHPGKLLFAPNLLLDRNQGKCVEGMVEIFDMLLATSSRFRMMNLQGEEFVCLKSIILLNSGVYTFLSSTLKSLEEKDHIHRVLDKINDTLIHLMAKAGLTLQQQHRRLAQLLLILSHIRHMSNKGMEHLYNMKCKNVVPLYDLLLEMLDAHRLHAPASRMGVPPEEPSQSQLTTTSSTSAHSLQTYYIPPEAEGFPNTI
Description: Oestrogen Receptor of a Rat's Uterus (ROR):
Female rats of 280-300 g and castrated 24 hours beforehand, are sacrificed, the uteri are removed, then homogenized at 0° C., using a teflon-glass Potter in a buffered solution BS (10 mM Tris, 0.25 M saccharose, HCl pH 7.4) (1 g of tissue per 10 ml of BS). The homogenate is then ultracentrifuged (209,000 g×30mn.) at 0° C. The supernatant aliquots thus obtained are incubated at 0° C. for 24 hours, with a constant concentration (2.5 10^−9M) of tritiated oestrodiol in the presence of increasing concentrations either of unlabelled oestradiol (0-1000×10^−9M), or of unlabelled product to be tested […]. The concentration of bound tritiated oestradiol (B) is then measured in each incubate by the carbon-dextran adsorption technique.
as §1, §2, §3, §4, §5, §6, §7, §8

Compound | HOR long t relative bond affinity (RBA) [1] | ROR relative bond affinity (RBA) [2] | HOR short t relative bond affinity (RBA) [1]
O=Cc1cc(Br)c(-c2ccc(O)cc2)c(Br)c1 [Example 1, 2,6-dibromo-4′-hydroxy-(1,1′-biphenyl)-4-carboxaldehyde] | 5.5 | – | –
OCc1cc(Br)c(-c2ccc(O)cc2)c(Br)c1 [Example 2, 2,6-dibromo-4′-hydroxy-(1,1′-biphenyl)-4-methanol] | 74 | 12.5 | 425
CC(C)c1cc(CO)cc(Cl)c1-c1ccc(O)cc1 [Example 4, 2-chloro-4′-hydroxy-6-(1-methylethyl)-(1,1′-biphenyl)-4-methanol] | 22 | 4 | –
CCc1cc(C(C)C)c(-c2ccc(O)cc2)cc1C [Example 6, 4′-ethyl-5′-methyl-2′-(1-methylethyl)-(1,1′-biphenyl)-4-ol] | 4.5 | – | –
OCc1cc(Cl)c(-c2ccc(O)cc2)c(C(F)(F)F)c1 [Example 7, 2-chloro-4′-hydroxy-6-(trifluoromethyl)-(1,1′-biphenyl)-4-methanol] | 50 | 9.5 | –
Cc1c(C(C)O)cc(C(C)C)c(-c2ccc(O)cc2)c1Cl (stereo not drawn) [Example 13, 1-[2-chloro-4′-hydroxy-3-methyl-6-(1-methylethyl)-(1,1′-biphenyl-4-yl)]-ethanol] | 7.5 | 0.8 | 24
O=[N+]([O-])c1cc(CO)cc(Br)c1-c1ccc(O)cc1 [Example 18, 2-bromo-4′-hydroxy-6-nitro-(1,1′-biphenyl)-4-methanol] | 34 | 5 | –
OCc1cc(Cl)c(-c2ccc(O)cc2)c(Cl)c1 [Example 24, 2,6-dichloro-4′-hydroxy-(1,1′-biphenyl)-4-methanol] | 35 | 3 | 104
O=Cc1cc(Cl)c(-c2ccc(O)cc2)c(Cl)c1 [Example 25, 2,6-dichloro-4′-hydroxy-(1,1′-biphenyl)-4-carboxaldehyde] | 5 | – | 12
OCc1c(Cl)c(Cl)c(-c2ccc(O)cc2)c(Cl)c1Cl [Example 26, 4′-hydroxy-2.3,5,6-tetrachloro-(1,1′-biphenyl)-4-methanol] | 5.5 | – | –
OCc1ccc(-c2ccc(O)cc2)c(C(F)(F)F)c1 [Example 28, 4′-hydroxy-2-trifluoromethyl-(1,1′-biphenyl)-4-methanol] | 8 | 2 | 33
Cc1ccc(-c2ccc(O)cc2)c(C(F)(F)F)c1 [Example 29, 4′-methyl-2′-trifluoromethyl-(1,1′-biphenyl)-4-ol] | 0.6 | 0.15 | –
O=[N+]([O-])c1cc(CO)cc([N+](=O)[O-])c1-c1ccc(O)cc1 [Example 30, 2,6-dinitro-4′-hydroxy-(1,1′-biphenyl)-4-methanol] | 5 | 2 | 24
OCc1cc(Cl)c(-c2ccc(O)c(Cc3ccccc3)c2)c(Cl)c1 [Example 36, 2,6-dichloro-4′-hydroxy-5′-(phenylmethyl)-(1,1′-biphenyl)-4-methanol] | 0.07 | 8 | –
